Counter-ions that a name gives are not always drawn. Like-named read-outs stand apart in the source and are kept apart here.
Tests used:
[1] = cited from earlier work
phospholipidosis = conditions: cited from earlier work
LPLA2 = target: T1, LPLA2 (Mus musculus, UniProt Q8VEB4); test: LPLA2 thermal stability measurement (SYPRO Orange Tm); format: binding
T1 construct: purchased Proteos Inc. (Kalamazoo, MI)
T1 sequence (Q8VEB4 34-412): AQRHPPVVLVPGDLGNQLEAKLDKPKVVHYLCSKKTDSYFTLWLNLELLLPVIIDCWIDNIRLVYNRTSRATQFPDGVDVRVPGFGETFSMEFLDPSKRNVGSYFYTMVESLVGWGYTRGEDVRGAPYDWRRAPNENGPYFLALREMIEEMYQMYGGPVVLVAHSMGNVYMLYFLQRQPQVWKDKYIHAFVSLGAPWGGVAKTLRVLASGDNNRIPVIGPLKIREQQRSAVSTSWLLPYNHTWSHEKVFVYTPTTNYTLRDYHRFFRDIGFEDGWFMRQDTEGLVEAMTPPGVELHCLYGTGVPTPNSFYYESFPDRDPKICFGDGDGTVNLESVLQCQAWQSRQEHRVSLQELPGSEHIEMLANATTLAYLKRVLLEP

[2] = target: T2, recombinant mouse LPLA2 (PLA2G15) (Mus musculus, UniProt Q8VEB4); test: Transacylase activity of LPLA2 (1-O-acyl-N-acetylsphingosine synthase, cell-free liposome assay); format: biochemical
T2 construct: purchased Proteos Inc. (Kalamazoo, MI)
T2 sequence (Q8VEB4 34-412): T1 sequence (Q8VEB4 34-412)

[3] = ref Pubchem and chEMBL databases
[4] = phospholipidosis reported in vitro, Refs of Table 1
[5] = 1-O-acyl N-acetylsphingosine synthase activity, pH 4.5, DOPC/sulfatide liposomes, read-out: LPLA2 IC50

Row | Structure (SMILES) | pKa (basic) [1, 3] | In Vitro PLD (phospholipidosis; [4]) | (ΔTm)c-(ΔTm)d, difference in melting temperature of LPLA2 alone or in the presence of drug (LPLA2; N=3 ± SD) | IC50 [2, 5] | also measured
1 | COc1ccc(CCN2CCC(Nc3nc4ccccc4n3Cc3ccc(F)cc3)CC2)cc1 [Astemizole, 1-(4-fluorobenzyl)-2-(1-[4-methoxyphenethyl]piperidin-4-yl)aminobenzimidazole] | 8.75 | Yes | – | – | –
2 | CC(C)(C)c1ccc(CN2CCN(C(c3ccccc3)c3ccc(Cl)cc3)CC2)cc1 (stereo not shown) [Buclizine, 1-((4-chlorophenyl)phenylmethyl)-4-((4-(1,1-dimethylethyl)phenyl)methyl)piperazine] | 8.04 | – | 0.63 ± 0.1 °C | 9.13 µM | –
3 | CN1CCC[C@@H]1CCO[C@](C)(c1ccccc1)c1ccc(Cl)cc1 [Clemastine] | 9.55 | Yes | – | – | –
4 | CC(C)(C)NCC(O)c1cc(Cl)c(N)c(Cl)c1.Cl (stereo not drawn) [Clenbuterol, 4-amino-3,5-dichloro-α-[[(1,1-dimethylethyl)amino]methyl]-benzenemethanol, monohydrochloride] | – | Yes | 1.20 ± 0.23 °C | – | LPLA2 inhibition (in words) [2]: millimolar concentrations; IC50 ([2]; LPLA2 IC50): 7300 µM
5 | CC(C)N=c1cc2n(-c3ccc(Cl)cc3)c3ccccc3nc-2cc1Nc1ccc(Cl)cc1 [Clofazimine, N,5-bis(4-chlorophenyl)-3,5-dihydro-3-(isopropylimino)phenazin-2-amine] | – | Yes | -0.97 ± 0.1 °C | 10.8 µM | –
6 | CN(C)CCOC(c1ccccc1)c1ccccc1 [Diphenhydramine] | – | Yes | – | – | –
7 | CC[C@H]1OC(=O)[C@H](C)[C@@H](O[C@H]2C[C@@](C)(OC)[C@@H](O)[C@H](C)O2)[C@H](C)[C@@H](O[C@@H]2O[C@H](C)C[C@H](N(C)C)[C@H]2O)[C@](C)(O)C[C@@H](C)C(=O)[C@H](C)[C@@H](O)[C@]1(C)O [Erythromycin, (3R,4S,5S,6R,7R,9R,11R,12R,13S,14R)-6-{[(2S,3R,4S,6R)-4-(dimethylamino)-3-hydroxy-6-methyloxan-2-yl]oxy}-14-ethyl-7,12,13-trihydroxy-4-{[(2R,4R,5S,6S)-5-hydroxy-4-methoxy-4,6-dimethyloxan-2-yl]oxy}-3,5,7,9,11,13-hexamethyl-1-oxacyclotetradecane-2,10-dione] | 8.38 | – | -0.48 ± 0.4 °C | 117 µM | –
8 | CC(C)OC(=O)C(C)(C)Oc1ccc(C(=O)c2ccc(Cl)cc2)cc1 [Fenofibrate, 2-[4-(4-chlorobenzoyl)phenoxy]-2-methylpropanoic acid isopropyl ester] | -4.9 | – | 0.44 ± 0.7 °C | 2.25 µM | –
9 | O=C(O)c1cc(O)ccc1O [Gentisic acid, 2,5-dihydroxybenzoic acid sodium salt] | – | Yes | – | – | –
10 | C[C@]12CCC(=O)C=C1CC[C@@H]1[C@@H]2[C@@H](O)C[C@@]2(C)[C@H]1CC[C@]2(O)C(=O)CO [Hydrocortisone] | – | – | 1.11 ± 0.1 °C | – | pKa (basic) ([1]; ref Pubchem and chEMBL database): -2.8; IC50 ([2]; LPLA2 dependent 1-O-acyl N-acetylsphingosine synthase activity, read-out: LPLA2 IC50): 402 µM
11 | CN1CCC(=C2c3ccccc3CC(=O)c3sccc32)CC1 [Ketotifen] | – | Yes | 0.10 ± 0.0 °C | 19.7 µM | –
12 | CCOC(=O)N1CCC(=C2c3ccc(Cl)cc3CCc3cccnc32)CC1 [Loratadine, ethyl 4-{13-chloro-4-azatricyclo[9.4.0.0^3,^8]pentadeca-1(11),3(8),4,6,12,14-hexaen-2-ylidene}piperidine-1-carboxylate] | – | Yes | – | 8.94 µM | –
13 | CCN(CCCCOC(=O)c1ccc(OC)c(OC)c1)C(C)Cc1ccc(OC)cc1 (stereo not shown) [Mebeverine, 4-{ethyl[1-(4-methoxyphenyl)propan-2-yl]amino}butyl 3,4-dimethoxybenzoate] | 10.31 | – | -0.05 ± 0.5 °C | 417 µM | –
14 | CC12CC3CC(C)(C1)CC(N)(C3)C2.Cl [Memantine, 3,5-Dimethyl-1-adamantanamine hydrochloride] | – | Yes | 2.00 ± 0.2 °C | 35.7 µM | –
15 | CC#C[C@]1(O)CC[C@H]2[C@@H]3CCC4=CC(=O)CCC4=C3[C@@H](c3ccc(N(C)C)cc3)C[C@@]21C [Mifepristone, (1S,3aS,3bS,10R,11aS)-10-[4-(dimethylamino)phenyl]-1-hydroxy-11a-methyl-1-(prop-1-yn-1-yl)-1H,2H,3H,3aH, 3bH,4H,5H,7H,8H, 9H,10H,11H,11aH-cyclopenta[a]phenanthren-7-one] | 4.89 | – | – | 27.7 µM | (ΔTm)c-(ΔTm)d, difference in melting temperature of LPLA2 alone or in the presence of drug (LPLA2): 0.20 ± 0.0 °C
16 | CN1CCN2c3ncccc3Cc3ccccc3C2C1 (stereo not shown) [Mirtazapine, 5-methyl-2,5,19-triazatetracyclo [13.4.0.0^2,^7.0^8,^1³] nonadeca-1(15),8,10,12,16,18-hexaene] | 6.67 | – | -1.30 ± 0.7 °C | 8.7 µM | –
17 | Clc1ccc(C(c2ccccc2Cl)C(Cl)Cl)cc1 (stereo not shown) [Mitotane, 1-chloro-4-[2,2-dichloro-1-(2-chlorophenyl)ethyl] benzene] | – | Yes | – | 132 µM | (ΔTm)c-(ΔTm)d, difference in melting temperature of LPLA2 alone or in the presence of drug (LPLA2): 0.47 ± 0.1 °C
18 | OCCN1CCN(CCCN2c3ccccc3Sc3ccc(Cl)cc32)CC1 [Perphenazine] | 8.21 | – | – | – | (ΔTm)c-(ΔTm)d, difference in melting temperature of LPLA2 alone or in the presence of drug (LPLA2): -0.41 ± 0.2 °C; IC50 ([2]; LPLA2 IC50, 1-O-acyl N-acetylsphingosine synthase activity, pH 4.5, DOPC/sulfatide liposomes): 3.92 µM
19 | CCOc1ccc(NC(C)=O)cc1 [Phenacetin, N-(4-ethoxyphenyl) acetamide] | -4.2 | – | -2.30 ± 0.6 °C | 2140 µM | –
20 | O=C(CCCN1CCC2(CC1)C(=O)NCN2c1ccccc1)c1ccc(F)cc1 [Spiperone, 8-[3-(p-fluor benzoyl)propyl]-1-phenyl-1,3,8-triazaspiro [4.5]decan-4-one] | – | Yes | 1.86 ± 0.1 °C | 519 µM | –
21 | CC1=C(CC(=O)O)c2cc(F)ccc2/C1=C\c1ccc([S+](C)[O-])cc1 (stereo not shown) [Sulindac, 2-[(1Z)-5-fluoro-1-[(4-methanesulfinylphenyl)methylidene]-2-methyl-1H-inden-3-yl]acetic acid] | – | Yes | -0.10 ± 0.0 °C | 10.9 µM | –
22 | Nc1c2c(nc3ccccc13)CCCC2 [Tacrine, 1,2,3,4-tetrahydroacridin-9-amine] | – | – | – | – | In Vitro PLD (phospholipidosis): Yes
